pIC50, pKd: −log10 of the molar value. Numbered stars: 1 amine (or outer) side, 2 acyl side, 3 side chain; on linkers, the order of the positions; unused ones are H or OH. Bridge positions count the residues as written; N and C are the ends. Square brackets hold non-standard residues; d marks the D form. Peptide text beside a SMILES is read from it. * marks the point of attachment. Trp(βS-Me,7-OMe) = COc1cccc2c([C@H](C)[C@H](N)C(=O)O)c[nH]c12; Trp(7-CN) = N#Cc1cccc2c(C[C@H](N)C(=O)O)c[nH]c12; Trp(7-Cl) = N[C@@H](Cc1c[nH]c2c(Cl)cccc12)C(=O)O; Phe(4-CONH2) = NC(=O)c1ccc(C[C@H](N)C(=O)O)cc1; Phe(4-COOH) = N[C@@H](Cc1ccc(C(=O)O)cc1)C(=O)O; Trp(7-aza) = N[C@@H](Cc1c[nH]c2ncccc12)C(=O)O; X3 = C[C@H](c1ccncc1)[C@H](N[*:1])C(=O)[*:2]; dPro(4S-NH2) = N[C@@H]1CN[C@@H](C(=O)O)C1; Pip(5R-OH) = O=C(O)[C@@H]1CC[C@@H](O)CN1; X1 = O=C([C@@H]1CC[C@H](N[*:1])C1)[*:2]; Pip(4-aza) = O=C(O)[C@@H]1CNCCN1; 4Pal = N[C@@H](Cc1ccncc1)C(=O)O; NMeE = CN[C@@H](CCC(=O)O)C(=O)O; dHyp = O=C(O)[C@H]1C[C@H](O)CN1; αMeS = C[C@](N)(CO)C(=O)O; Nle = CCCC[C@H](N)C(=O)O; Ethyl(2-NH2) = NCC*; Sar = CNCC(=O)O; X22 = C1CC1C*
Legend:
[1] = target: T1, human TNFR1 extracellular domain (ECD) protein (Homo sapiens, UniProt P19438); assay: SPR binding affinity to captured human TNFR1 ECD
T1 construct: HRV 3C protease cleavage site (C); 6His (C, cleaved yes); made in house; host or cells: Sf21 insect cells (baculovirus), secreted
T1 sequence (P19438 30-211): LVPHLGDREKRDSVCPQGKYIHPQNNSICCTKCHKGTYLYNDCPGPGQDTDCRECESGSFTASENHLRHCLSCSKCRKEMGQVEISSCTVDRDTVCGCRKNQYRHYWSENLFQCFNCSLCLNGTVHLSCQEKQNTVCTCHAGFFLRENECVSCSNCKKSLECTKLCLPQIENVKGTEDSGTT
Method in brief: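 Biotinylated avi-tagged human TNFR1 or TNFR2 ECD, expressed in Sf21 insect cells, captured on streptavidin SPR chip; peptide analytes run in 10 mM HEPES pH 7.4, 150 mM NaCl, 3 mM EDTA, 0.05% P20, 2% DMSO. kon and koff measured, affinity KA calculated.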

[2] = target: T2, TNFα-induced NF-κB signal transduction pathway (TNFR1 signaling) in THP-1 cells (Homo sapiens, UniProt P19438); assay: THP-1 Lucia NF-κB reporter cell assay, inhibition of TNFα-induced NF-κB signaling; format: cell-based; details: THP-1 NF-κB Lucia reporter cells, 10 ng/mL TNFα, 16-18 h, secreted luciferase; read-out: THP-1 IC50
T2 sequence (P19438 30-455): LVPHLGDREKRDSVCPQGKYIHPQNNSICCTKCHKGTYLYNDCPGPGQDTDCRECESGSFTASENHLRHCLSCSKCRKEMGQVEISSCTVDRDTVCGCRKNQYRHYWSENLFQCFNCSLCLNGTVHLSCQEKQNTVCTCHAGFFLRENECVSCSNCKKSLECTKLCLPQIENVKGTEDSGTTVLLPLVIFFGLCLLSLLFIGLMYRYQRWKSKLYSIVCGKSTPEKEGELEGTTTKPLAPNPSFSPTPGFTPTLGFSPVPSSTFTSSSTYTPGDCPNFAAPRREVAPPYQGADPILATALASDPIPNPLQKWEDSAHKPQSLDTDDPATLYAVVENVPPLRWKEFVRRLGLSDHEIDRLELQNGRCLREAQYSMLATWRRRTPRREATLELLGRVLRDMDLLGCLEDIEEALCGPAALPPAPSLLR
Method in brief: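 IC50 from a 4-parameter logistic fit of secreted luciferase luminescence (QUANTI-Luc), normalised to min/max controls. Reporter THP-1 cells were exposed to peptides for 1 h at 37 °C before 10 ng/mL TNFα (final) was added overnight (16–18 h).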

| SMILES | pKd [1] | pIC50 [2] |
| --- | --- | --- |
| CCCC[C@@H]1NC(=O)[C@@H]2CC[C@@H](C2)NC(=O)[C@H]([C@@H](C)c2c[nH]c3c(OC)cccc23)NC(=O)CN(C)C(=O)[C@H](Cc2ccc(O)cc2)NC(=O)[C@H](Cc2ccc(C(=O)O)cc2)NC(=O)[C@](C)(CO)NC(=O)[C@H](Cc2c[nH]c3c(Cl)cccc23)NC(=O)[C@H](Cc2ccncc2)NC(=O)[C@H](CC(N)=O)NC(=O)CN(C)C(=O)[C@H](Cc2c[nH]c3ccccc23)NC(=O)[C@@H]2CNCCN2C(=O)[C@H](Cc2ccncc2)NC1=O [SEQ ID NO. 141] (cyclo([4Pal][Trp(7-Cl)][αMeS][Phe(4-COOH)]Y[Sar][Trp(βS-Me,7-OMe)][X1][Nle][4Pal][Pip(4-aza)]W[Sar]N)) | 10.22 | 8.92 |
| CCCC[C@@H]1NC(=O)CSC[C@@H](C(N)=O)NC(=O)[C@H]([C@@H](C)c2c[nH]c3c(OC)cccc23)NC(=O)CN(C)C(=O)[C@H](Cc2ccc(O)cc2)NC(=O)[C@H](Cc2ccc(C(=O)O)cc2)NC(=O)[C@](C)(CO)NC(=O)[C@H](Cc2c[nH]c3c(Cl)cccc23)NC(=O)[C@H](Cc2ccncc2)NC(=O)[C@H](CC(N)=O)NC(=O)[C@H](CCC(=O)O)N(C)C(=O)[C@H](Cc2c[nH]c3ncccc23)NC(=O)[C@H](CO)NC(=O)[C@H]([C@H](C)c2ccncc2)NC1=O [SEQ ID NO. 143] ({CH2CO}-[Nle][X3]S[Trp(7-aza)][NMeE]N[4Pal][Trp(7-Cl)][αMeS][Phe(4-COOH)]Y[Sar][Trp(βS-Me,7-OMe)]C-NH2; thioether N-14) | 10.30 | 8.66 |
| CCCC[C@@H]1NC(=O)[C@@H]2CC[C@@H](C2)NC(=O)[C@H]([C@@H](C)c2c[nH]c3c(OC)cccc23)NC(=O)CN(C)C(=O)[C@H](Cc2ccc(O)cc2)NC(=O)[C@H](Cc2ccc(C(N)=O)cc2)NC(=O)[C@](C)(CO)NC(=O)[C@H](Cc2c[nH]c3c(Cl)cccc23)NC(=O)[C@H](Cc2ccncc2)NC(=O)[C@H](CC(N)=O)NC(=O)[C@H]2C[C@H](N)CN2C(=O)[C@H](Cc2c[nH]c3ccccc23)NC(=O)[C@@H]2CC[C@@H](O)CN2C(=O)[C@H](Cc2ccncc2)NC1=O [SEQ ID NO. 144] (cyclo([4Pal][Trp(7-Cl)][αMeS][Phe(4-CONH2)]Y[Sar][Trp(βS-Me,7-OMe)][X1][Nle][4Pal][Pip(5R-OH)]W[dPro(4S-NH2)]N)) | 10.00 | 9.22 |
| COc1cccc2c([C@H](C)[C@@H]3NC(=O)CN(C)C(=O)[C@H](Cc4ccc(C(=O)O)cc4)NC(=O)[C@H](Cc4ccc(C(N)=O)cc4)NC(=O)[C@](C)(CO)NC(=O)[C@H](Cc4c[nH]c5c(Cl)cccc45)NC(=O)[C@H](Cc4ccc(C(=O)O)cc4)NC(=O)[C@H](CC(N)=O)NC(=O)[C@H]4C[C@H](O)CN4C(=O)[C@H](Cc4c[nH]c5ncccc45)NC(=O)[C@@H]4CC[C@@H](O)CN4C(=O)[C@H](Cc4ccncc4)NC(=O)[C@H](COCCN)NC(=O)[C@@H]4CC[C@@H](C4)NC3=O)c[nH]c12 [SEQ ID NO. 148] (cyclo([4Pal][Pip(5R-OH)][Trp(7-aza)][dHyp]N[Phe(4-COOH)][Trp(7-Cl)][αMeS][Phe(4-CONH2)][Phe(4-COOH)][Sar][Trp(βS-Me,7-OMe)][X1]S(Ethyl(2-NH2)))) | 8.96 | 8.55 |
| COc1cccc2c([C@H](C)[C@@H]3NC(=O)CN(C)C(=O)[C@H](Cc4ccc(C(=O)O)cc4)NC(=O)[C@H](Cc4ccc(C(N)=O)cc4)NC(=O)[C@](C)(CO)NC(=O)[C@H](Cc4c[nH]c5c(C#N)cccc45)NC(=O)[C@H](Cc4ccc(C(=O)O)cc4)NC(=O)[C@H](CC(N)=O)NC(=O)[C@H]4C[C@H](O)CN4C(=O)[C@H](Cc4c[nH]c5ncccc45)NC(=O)[C@@H]4CC[C@@H](O)CN4C(=O)[C@H](Cc4ccncc4)NC(=O)[C@H](COCC4CC4)NC(=O)[C@@H]4CC[C@@H](C4)NC3=O)c[nH]c12 [SEQ ID NO. 149] (cyclo([4Pal][Pip(5R-OH)][Trp(7-aza)][dHyp]N[Phe(4-COOH)][Trp(7-CN)][αMeS][Phe(4-CONH2)][Phe(4-COOH)][Sar][Trp(βS-Me,7-OMe)][X1]S(X22))) | 9.74 | 8.89 |
